The values that follow come from patent publication US20240277740A1, “TREATMENT OF KNOWN AND UNKNOWN VIRAL INFECTION WITH LIPID AGENTS” (Viratides, LLC, priority 2020, published 2024).

As a reminder, the IC50 is the concentration at which inhibition is half-maximal. Usually CC50 stands for the concentration that lowers cell viability or growth by half.

One data set concerns uninfected Vero E6 cells. Particulars: for Viability of Uninfected Vero E6 Cells: 4-day treatment, mean ± s.d. of duplicates; for Viability of Uninfected Vero E6 Cells (A540): 4 days, raw duplicates.
For data set [1], the system named is SARS-CoV-2 (MEX-BC2/2020). The data set can be described thus: Live SARS-CoV-2 CPE-based antiviral assay in Vero E6 cells (neutral red). The class given is cell-based.

Converted amounts (≈) assume the structure as drawn. “And” between values parts separate entries of the source, which are not always exact repeats. Equal values may be shown once. Read-outs that look alike come from different tables or passages of the source.

Take `C[S+](C)[O-]` [DMSO, reference compound]: the “block of cell viability” value with uninfected Vero E6 cells (tested at 10%) was “more than 95%”.
Consider `N#C[C@@]1(c2ccc3c(N)ncnn23)O[C@H](CO)[C@@H](O)[C@H]1O` [GS-441524, reference compound], for which the “Inhibition of SARS-CoV-2 (MEX-BC2/2020) Virus-Induced CPE” value (from here on “Inhibition”) in data set [1] (0.03 μM, single data point) is 0.09 % mock; in data set [1] (0.08 μM, single data point), 1.1 % mock; in data set [1] (0.25 μM, single data point) it was 16.1 % mock; in data set [1] (0.74 μM, single data point), 134.9 % mock; in data set [1] (1 μM) it was 110.2 % mock; in data set [1] (6.7 μM, single data point), 116.6 % mock. Also, in data set [1] (10 μM), the “Inhibition” value stood at 100.0 % mock. The “Raw OD - Absorbance (540 nm), infected cells” value (“Raw OD - Absorbance (540 nm)” for short) in data set [1] (0.25 μM, single data point) is 0.194; in data set [1] (0.74 μM, single data point) it was 0.648; in data set [1] (1 μM), 0.554 and 0.553; in data set [1] (6.7 μM, single data point), 0.578; in data set [1] (10 μM) it was 0.507 and 0.522. Also, the IC50 in data set [1] (Severe acute respiratory syndrome coronavirus 2, Vero C1008, Vero E6, 96 h, estimated by GraphPad Prism, R2 = 0.977) is about 280 nM. In data set [1] (Vero E6), the “concentrations at which virus-induced CPE was completely prevented” value was at least 0.74 µM. Further, the “prevention of virus-induced CPE by control inhibitor (in words)” value in data set [1] (quality control of infectivity assay) is “prevented completely the virus-induced CPE”.
For `CCCCCCCC/C=C\CCCCCCCCCCCCCC(=O)N[C@@H](CO[C@@H]1O[C@H](CO)[C@H](O)[C@H](OS(=O)(=O)O)[C@H]1O)[C@H](O)/C=C/CCCCCCCCCCCCC` [Sulfatide 24:1, C24:1 3′-sulfo Galactosylceramide (d18:1/24:1(15Z))], the “Inhibition” value was −3.4 ± 0.6 % mock in data set [1] (0.78 μg/mL, average ± s.d. of duplicates); −1.7 ± 4.1 % mock in data set [1] (1.6 μg/mL, average ± s.d. of duplicates); −3.6 ± 1.1 % mock in data set [1] (3.1 μg/mL, average ± s.d. of duplicates); −3.8 ± 1.1 % mock in data set [1] (6.25 μg/mL, average ± s.d. of duplicates); 1.3 ± 3.9 % mock in data set [1] (12.5 μg/mL, average ± s.d. of duplicates); 1.9 ± 2.2 % mock in data set [1] (25 μg/mL, average ± s.d. of duplicates). For the same compound, the “Inhibition” value stood at 21.6 ± 13.0 % mock in data set [1] (50 μg/mL, average ± s.d. of duplicates) and 61.3 ± 8.5 % mock in data set [1] (100 μg/mL, average ± s.d. of duplicates). Also, the “Raw OD - Absorbance (540 nm)” value in data set [1] (0.78 μg/mL, duplicates) was 0.121 and 0.118; in data set [1] (1.6 μg/mL, duplicates), 0.137 and 0.115; in data set [1] (3.1 μg/mL, duplicates) it was 0.122 and 0.116; in data set [1] (6.25 μg/mL, duplicates) it was 0.115 and 0.121; in data set [1] (12.5 μg/mL, duplicates), 0.127 and 0.18; in data set [1] (25 μg/mL, duplicates) it was 0.134 and 0.146. Besides, the “Raw OD - Absorbance (540 nm)” value was 0.180 and 0.250 in data set [1] (50 μg/mL, duplicates); 0.390 and 0.344 in data set [1] (100 μg/mL, duplicates). Besides, the “IC50 (antiviral)” value in data set [1] (Vero E6, 96 h, neutral red) is 84.9 µg/mL (≈ 95.4 µM). Also, the “prevention of virus-induced CPE (in words)” value in data set [1] (at the two highest concentrations tested, 50 μg/mL and 100 μg/mL) is on record as “prevented the virus-induced cytopathic effect (CPE) in a dose-dependent manner”. The 50% cytotoxic concentration (CC50) in the data set on uninfected Vero E6 cells is over 100 µg/mL. Also, the “cytotoxicity in viability assay (in words)” value in the data set with uninfected Vero E6 cells was “dose-dependent trend of cytotoxicity”. The “Viability of Uninfected Vero E6 Cells” value is 89.8 ± 5.8 % vehicle in the data set with uninfected Vero E6 cells (0.78 μg/mL); 99.3 ± 1.4 % vehicle in the data set on uninfected Vero E6 cells (1.6 μg/mL); 97.3 ± 1.4 % vehicle in the data set on uninfected Vero E6 cells (3.1 μg/mL); 95.7 ± 2.3 % vehicle in the data set on uninfected Vero E6 cells (6.25 μg/mL); 95.6 ± 3.5 % vehicle in the data set on uninfected Vero E6 cells (12.5 μg/mL); 85.8 ± 11.0 % vehicle with uninfected Vero E6 cells (25 μg/mL). Further, the “Viability of Uninfected Vero E6 Cells” value in the data set on uninfected Vero E6 cells (50 μg/mL) turned out to be 73.7 ± 13.1 % vehicle; in the data set with uninfected Vero E6 cells (100 μg/mL), 63.8 ± 7.9 % vehicle. For the same compound, the “Viability of Uninfected Vero E6 Cells (A540)” value is 0.457 and 0.424 with uninfected Vero E6 cells (0.78 μg/mL); 0.495 and 0.487 in the data set with uninfected Vero E6 cells (1.6 μg/mL); 0.487 and 0.479 in the data set on uninfected Vero E6 cells (3.1 μg/mL); 0.483 and 0.470 with uninfected Vero E6 cells (6.25 μg/mL); 0.486 and 0.466 with uninfected Vero E6 cells (12.5 μg/mL); 0.468 and 0.405 in the data set with uninfected Vero E6 cells (25 μg/mL). The “Viability of Uninfected Vero E6 Cells (A540)” value with uninfected Vero E6 cells (50 μg/mL) was 0.425 and 0.350; in the data set with uninfected Vero E6 cells (100 μg/mL), 0.370 and 0.325.
